Literature values as cited in US20060003361A1, “SMVT transporters expressed in cancer cells” (Xenoport, Inc., priority 2004, published 2006).

Molecular target: T1, SMVT (Homo sapiens, UniProt Q9Y289)
T1 sequence (Q9Y289 1-635): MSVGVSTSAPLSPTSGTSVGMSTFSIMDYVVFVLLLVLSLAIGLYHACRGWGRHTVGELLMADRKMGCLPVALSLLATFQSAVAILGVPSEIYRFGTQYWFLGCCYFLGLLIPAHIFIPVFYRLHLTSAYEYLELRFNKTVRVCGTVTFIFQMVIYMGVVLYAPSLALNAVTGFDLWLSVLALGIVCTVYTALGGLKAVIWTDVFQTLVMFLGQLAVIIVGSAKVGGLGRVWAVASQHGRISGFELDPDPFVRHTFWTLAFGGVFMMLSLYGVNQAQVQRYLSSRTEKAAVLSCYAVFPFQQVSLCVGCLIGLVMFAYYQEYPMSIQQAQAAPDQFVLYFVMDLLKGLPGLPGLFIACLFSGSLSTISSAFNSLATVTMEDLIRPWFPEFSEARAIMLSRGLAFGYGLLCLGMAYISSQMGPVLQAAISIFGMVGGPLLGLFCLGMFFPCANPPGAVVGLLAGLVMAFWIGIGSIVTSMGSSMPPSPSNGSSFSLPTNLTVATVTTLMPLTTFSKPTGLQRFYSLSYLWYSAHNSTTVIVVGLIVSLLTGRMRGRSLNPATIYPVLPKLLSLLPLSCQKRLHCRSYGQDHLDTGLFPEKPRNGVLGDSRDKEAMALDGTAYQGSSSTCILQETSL

Row | Reported Affinity for SMVT | SMILES
1 | 0.04 mM | O=C(O)CCCc1ccccc1 [4-phenyl-butyric acid]
2 | 0.03 mM | CC(C)(CO)[C@@H](O)C(=O)NCCC(=O)O [Pantothenic acid]

Row | SMILES | Reported Affinity for SMVT
3 | O=C(O)CCCC[C@@H]1SC[C@@H]2NC(=O)N[C@@H]21 [Biotin] | 0.01 mM
